Source: patent US20170368018A1, “USE OF ELLAGIC ACID DIHYDRATE IN PHARMACEUTICAL FORMULATIONS TO REGULATE BLOOD GLUCOSE LEVELS” (HALO LIFE SCIENCE, LLC, priority 2014, published 2017)

Legend:
[1] = Estimated saturation in 100% DMSO; assay type: physicochemical
Description: General Procedure. For Examples 2 through 7, all test compounds of interest were initially dissolved in 100% DMSO. Estimated saturation occurred at approximately 4 mM for ellagic acid dihydrate. The saturated solution was diluted 1:10 in 1× PBS; creating a 100× stock solution of 400 μM ellagic acid dihydrate. Working concentrations (1×), 4 μM, and more dilute concentrations of ellagic acid dihydrate were created by 1:10 dilutions into 0.1% DMSO. The resulting six dilutions ranged from 4 μM to 0.04 nM. Dose curves were analyzed using either Harmony software on the Operetta (Perkin Elmer) or Excel (Microsoft) for flow cytometry, which was performed on a BD Accuri (BD Biosciences).

[2] = system: GLUT4-GFP in mouse myoblast C2C12 cells; assay: Localization of glucose transporter GLUT4-GFP, time-lapse confocal microscopy; assay type: cell-based; conditions: C2C12, 4000 nM
Description: Induction of glucose transporter, GLUT-4, in ellagic acid dihydrate treated cell cultures was studied. Cellular assays were performed using mouse myoblast C2C12 cells. The cells were infected with a fusion glucose transporter 4 green fluorescent protein (GLUT4-GFP). This protein allows the visualization of GLUT4 by imaging the GFP under fluorescent time-lapse microscopy. Frames were compiled to produce time-lapse images of cellular changes with no treatment or treatment with insulin. The localization of glucose transporter (GLUT4-GFP) was performed in final incubation volume of 505 μL, consisting of 500 μL of Hank's Buffer (Invitrogen) and 5 μl of tested compounds. Insulin was used as positive controls and vehicle (0.1% DMSO) as the negative control. All test compounds were prepared in 10% DMSO and diluted 1:100 for a final concentration of 0.1% DMSO (vehicle). The cells were rinsed in Hank's Buffer thrice and then incubated in Hank's Buffer at 37° C. for one hour. The test compounds were added (ellagic acid dihydrate, insulin, or vehicle) and the cells were imaged using laser-confocal microscopy (Leica TCS SP5 X) with FITC fluorescent filters to determine changes in GLUT4-GFP localization. Time-lapse images (TIF) were collected and post-processed using Image-J (NIH) for video construction.

[3] = system: AKT / Phos AKT in C2C12 cells; assay: AKT:phos AKT ratio by immunocytochemistry, high-content imaging; assay type: cell-based, mouse; conditions: C2C12, serum starved 1 hr, treated 30 minutes, 4 nM-4 μM, FIG. 8
Description: Stimulation of AKT pathways and MAPK pathways in ellagic acid dihydrate, metformin, and insulin treated cell cultures was performed. Insulin stimulates glucose uptake into cells by increasing GLUT4 activation, and AKT, specifically phos-AKT, signaling alters GLUT4 translocation. […] Cellular assays were performed using mouse myoblast C2C12 cells. […] Serum starved cells (1 hr) were treated for 30 minutes with each of the tested compounds.

[4] = system: mouse embryonic fibroblasts (MEFs); assay: Cytotoxicity: cell proliferation by automated cell counting (flow cytometry); assay type: cell-based; conditions: 48 hr exposure, 4 μM-0.04 nM, changes not statistically significant (P>0.05)
Description: (§1) The cytotoxicity of ellagic acid dihydrate in in vitro cell culture was evaluated. Cellular assays were performed using mouse embryonic fibroblasts (MEFs). Cells were unexposed (No Treatment) or exposed to varying concentrations of ellagic acid dihydrate (4 μM-0.04 nM) or vehicle (0.1% DMSO) for 48 hrs. All assays were run in triplicate.
Cell proliferation rates were determined using automated cell counting of cells after 48 hr exposure to ellagic acid dihydrate in complete medium (DMEM w/10% FBS). Cell were then washed thrice with 1× PBS and incubated with Accutase (Invitrogen) for 10 min at 37° C., neutralized with 10% FBS in 1× PBS, and analyzed by flow cytometry. Cell concentrations were determined by cell counting (500-1000) on a flow cytometer (Accuri C6, BD Biosciences). The concentration of cells reflects the impact of ellagic acid dihydrate on the cell population numbers (cell death and cell proliferation).

[5] = system: mouse embryonic fibroblasts (MEFs); assay: Cytotoxicity: cell membrane integrity by propidium iodide (PI) labeling; assay type: cell-based; conditions: 48 hr exposure
Description: as §1
Loss of cellular membrane integrity is an indication of cell death. Cell membrane integrity/cell toxicity was determined by adding propidium iodide (PI) to suspended cells prior to flow cytometry. PI is a red-fluorescent DNA stain that is excluded by live-healthy cells but will enter dead cells in a population. The presence of PI in 500-1000 cells per treatment group was determined by flow cytometry (Accuri C6, BD Biosciences). Cell with disrupted membranes, associated with cell death, are expected to be positively labeled with PI.

With `O.O.O=c1oc2c(O)c(O)cc3c(=O)oc4c(O)c(O)cc1c4c23` [ellagic acid dihydrate] the Estimated saturation [1] was “approximately 4 mM”, the “GLUT4-GFP around the cell nucleus” value [2] was “decrease in nuclear GLUT4-GFP” and the “ruffling of filopodia at the surface of the cell” value [2] was “rapid ruffling of filopodia”. The “time course of GLUT4-GFP and membrane changes compared with insulin” value [2] was “slightly delayed”, the “AKT:Phos AKT ratio (log2 scale) relative to vehicle treated cells” value [3] was “increase in AKT relative to Phos-AKT signal” and the Cell proliferation [4] was “trend toward increasing cell proliferation”. For the same compound, the “Cell membrane integrity relative to the vehicle or untreated cells” value ([5]; 400 nM-0.4 nM, not statistically significant (P>0.05)) was “increased” and the “Cell membrane integrity (% cells negative for PI)” value ([5]; 4000 nM) was 95.40%.
